Measured values taken from ChEMBL document CHEMBL3817813, “Exploiting the co-reliance of tumours upon transport of amino acids and lactate: Gln and Tyr conjugates of MCT1 inhibitors” (Medchemcomm, 2016).
Blank lines part the entries; values can stand above or below the compound they belong to. The source made the active and inactive calls. The rule behind the calls is not given here.

Experiments:
[1] = system: MDA-MB-231; assay: Cytotoxicity against MCT1-deficient human MDA-MB-231 cells at 10 uM measured after 96 hrs by MTT assay; type: cell-based; conditions: mda-mb-231, 96 h
[2] = biological target: T1, Monocarboxylate transporter 1 (Homo sapiens) (UniProt P53985); assay: Activity at MCT1 (unknown origin) using [14C]lactate by cell based lactate flux assay
T1 sequence (whole entry): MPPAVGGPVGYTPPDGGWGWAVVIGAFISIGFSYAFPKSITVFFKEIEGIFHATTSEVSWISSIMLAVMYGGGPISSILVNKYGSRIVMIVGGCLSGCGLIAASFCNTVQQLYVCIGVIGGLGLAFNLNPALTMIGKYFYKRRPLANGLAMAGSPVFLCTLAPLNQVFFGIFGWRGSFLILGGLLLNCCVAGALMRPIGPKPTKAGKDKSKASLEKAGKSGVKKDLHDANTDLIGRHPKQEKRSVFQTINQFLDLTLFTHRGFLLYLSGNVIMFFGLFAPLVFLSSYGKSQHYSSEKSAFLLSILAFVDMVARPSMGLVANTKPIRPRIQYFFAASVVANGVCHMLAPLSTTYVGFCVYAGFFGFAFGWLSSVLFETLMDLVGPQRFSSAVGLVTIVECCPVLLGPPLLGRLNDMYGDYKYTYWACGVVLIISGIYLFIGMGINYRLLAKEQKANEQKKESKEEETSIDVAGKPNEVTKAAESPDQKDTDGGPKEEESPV

[3] = Drug uptake in Sprague-Dawley rat plasma at 20 mg/kg, ip measured after 6 hrs by LC-MS/MS analysis; type: ADME, organism-based
[4] = Drug uptake in Sprague-Dawley rat blood at 20 mg/kg, ip measured after 6 hrs by LC-MS/MS analysis; type: ADME, organism-based; conditions: whole blood, read-out: Drug uptake
[5] = Drug uptake in Sprague-Dawley rat brain at 20 mg/kg, ip measured after 6 hrs by LC-MS/MS analysis; type: ADME, organism-based; conditions: read-out: Drug uptake
[6] = Drug uptake in Sprague-Dawley rat liver at 20 mg/kg, ip measured after 6 hrs by LC-MS/MS analysis; type: ADME, organism-based; conditions: read-out: Drug uptake
[7] = Drug uptake in Sprague-Dawley rat spleen at 20 mg/kg, ip measured after 6 hrs by LC-MS/MS analysis; type: ADME, organism-based; conditions: read-out: Drug uptake
[8] = Drug uptake in Sprague-Dawley rat kidney at 20 mg/kg, ip measured after 6 hrs by LC-MS/MS analysis; type: ADME, organism-based; conditions: read-out: Drug uptake
[9] = Drug uptake in Sprague-Dawley rat lung at 20 mg/kg, ip measured after 6 hrs by LC-MS/MS analysis; type: ADME, organism-based; conditions: read-out: Drug uptake
[10] = Drug uptake in Sprague-Dawley rat plasma at 20 mg/kg, ip measured after 24 hrs by LC-MS/MS analysis; type: ADME, organism-based
[11] = Drug uptake in Sprague-Dawley rat blood at 20 mg/kg, ip measured after 24 hrs by LC-MS/MS analysis; type: ADME, organism-based; conditions: whole blood, read-out: Drug uptake
[12] = Drug uptake in Sprague-Dawley rat brain at 20 mg/kg, ip measured after 24 hrs by LC-MS/MS analysis; type: ADME, organism-based; conditions: read-out: Drug uptake
[13] = Drug uptake in Sprague-Dawley rat liver at 20 mg/kg, ip measured after 24 hrs by LC-MS/MS analysis; type: ADME, organism-based; conditions: read-out: Drug uptake
[14] = Drug uptake in Sprague-Dawley rat spleen at 20 mg/kg, ip measured after 24 hrs by LC-MS/MS analysis; type: ADME, organism-based; conditions: read-out: Drug uptake
[15] = Drug uptake in Sprague-Dawley rat kidney at 20 mg/kg, ip measured after 24 hrs by LC-MS/MS analysis; type: ADME, organism-based; conditions: read-out: Drug uptake
[16] = Drug uptake in Sprague-Dawley rat lung at 20 mg/kg, ip measured after 24 hrs by LC-MS/MS analysis; type: ADME, organism-based; conditions: read-out: Drug uptake
[17] = Drug uptake in Sprague-Dawley rat plasma at 20 mg/kg, ip measured after 7 days by LC-MS/MS analysis; type: ADME, organism-based
[18] = Drug uptake in Sprague-Dawley rat blood at 20 mg/kg, ip measured after 7 days by LC-MS/MS analysis; type: ADME, organism-based; conditions: whole blood, read-out: Drug uptake
[19] = Drug uptake in Sprague-Dawley rat brain at 20 mg/kg, ip measured after 7 days by LC-MS/MS analysis; type: ADME, organism-based; conditions: read-out: Drug uptake
[20] = Drug uptake in Sprague-Dawley rat liver at 20 mg/kg, ip measured after 7 days by LC-MS/MS analysis; type: ADME, organism-based; conditions: read-out: Drug uptake
[21] = Drug uptake in Sprague-Dawley rat spleen at 20 mg/kg, ip measured after 7 days by LC-MS/MS analysis; type: ADME, organism-based; conditions: read-out: Drug uptake
[22] = Drug uptake in Sprague-Dawley rat kidney at 20 mg/kg, ip measured after 7 days by LC-MS/MS analysis; type: ADME, organism-based; conditions: read-out: Drug uptake
[23] = Drug uptake in Sprague-Dawley rat lung at 20 mg/kg, ip measured after 7 days by LC-MS/MS analysis; type: ADME, organism-based; conditions: read-out: Drug uptake
[24] = Drug uptake in NOD/SCID mouse tumor measured after 24 hrs; type: ADME, Neoplasm; conditions: read-out: Drug uptake

Compound: CC(C)Cc1nn(C)c(=O)c2c(SCCCO)n(Cc3cc(Cl)nc4ccccc34)cc12
Activity [1]: Non-toxic

Compound: CC(C)Cc1nn(C)c(=O)c2c(SCCCO)n(Cc3ccnc(Cl)c3)cc12
Activity [1]: Non-toxic

Compound: CC(C)Cc1nn(C)c(=O)c2c(SCCCO)n(Cc3ccnc(NCCCCCN)c3)cc12
Activity [1]: Non-toxic

Activity [2]: Active
concentration at 6 h [3]: 3270 nM
concentration at 6 h [4]: 4330 nM
concentration at 6 h [5]: 110 nM
concentration at 6 h [6]: 2500 nM
concentration at 6 h [7]: 2260 nM
concentration at 6 h [8]: 1620 nM
concentration at 6 h [9]: 1540 nM
concentration at 24 h [10]: 12 nM
concentration at 24 h [11]: 76 nM
concentration at 24 h [12]: 62 nM
concentration at 24 h [13]: 940 nM
concentration at 24 h [14]: 1060 nM
concentration at 24 h [15]: 960 nM
concentration at 24 h [16]: 520 nM
concentration at 168 h [17]: 4 nM
concentration at 168 h [18]: 41 nM
concentration at 168 h [19]: 43 nM
concentration at 168 h [20]: 98 nM
concentration at 168 h [21]: 190 nM
concentration at 168 h [22]: 210 nM
concentration at 168 h [23]: 110 nM
concentration at 24 h [24]: 300 nM
Compound: CC(C)Cc1nn(C)c(=O)c2c(SCCCO)n(Cc3ccc(C#CCCCOc4ccc(C[C@H](N)C(=O)O)cc4)c4ccccc34)cc12
Activity [1]: Non-toxic

Compound: CC(C)Cc1nn(C)c(=O)c2c(SCCCO)n(Cc3cc(NCCCCCN)nc4ccccc34)cc12
Activity [1]: Non-toxic

Activity [2]: Active
Compound: CC(C)Cc1nn(C)c(=O)c2c(SCCCO)n(Cc3ccc(C#CCCCNC(=O)[C@@H](N)CCC(N)=O)c4ccccc34)cc12
Activity [1]: Non-toxic

Compound: CC(C)Cc1nn(C)c(=O)c2c(SCCCO)n(Cc3cc(NCCCCCNC(=O)[C@@H](N)CCC(N)=O)nc4ccccc34)cc12
Activity [1]: Non-toxic

Compound: CC(C)Cc1nn(C)c(=O)c2c(SCCCO)n(Cc3ccc(NCCCCCN)nc3)cc12
Activity [1]: Non-toxic

Compound: CC(C)Cc1nn(C)c(=O)c2c(SCCCO)n(Cc3ccc(NCCCCCNC(=O)[C@@H](N)CCC(N)=O)nc3)cc12
Activity [1]: Non-toxic

concentration at 6 h [3]: 27 nM
concentration at 6 h [4]: 140 nM
concentration at 6 h [5]: 190 nM
concentration at 6 h [6]: 63 nM
concentration at 6 h [7]: 740 nM
concentration at 6 h [8]: 120 nM
concentration at 6 h [9]: 61 nM
concentration at 24 h [10]: 4 nM
concentration at 24 h [11]: 63 nM
concentration at 24 h [12]: 270 nM
concentration at 24 h [13]: 60 nM
concentration at 24 h [14]: 420 nM
concentration at 24 h [15]: 160 nM
concentration at 24 h [16]: 74 nM
concentration at 168 h [21]: 43 nM
Compound: CC(C)Cc1nn(C)c(=O)c2c(SCCCO)n(Cc3cccc4ccccc34)cc12
Activity [1]: Non-toxic

Compound: CC(C)Cc1nn(C)c(=O)c2c(SCCCO)n(Cc3cnc(Cl)c4ccccc34)cc12
Activity [1]: Non-toxic

Compound: CC(C)Cc1nn(C)c(=O)c2c(SCCCO)n(Cc3ccc(Cl)nc3)cc12
Activity [1]: Non-toxic

Compound: CC(C)Cc1nn(C)c(=O)c2c(SCCCO)n(Cc3cnc(NCCCCCN)c4ccccc34)cc12
Activity [1]: Non-toxic

Compound: CC(C)Cc1nn(C)c(=O)c2c(SCCCO)n(Cc3ccc(Br)c4ccccc34)cc12
Activity [1]: Non-toxic

Compound: CC(C)Cc1nn(C)c(=O)c2c(SCCCO)n(Cc3ccnc(NCCCCCNC(=O)[C@@H](N)CCC(N)=O)c3)cc12
Activity [1]: Non-toxic

Activity [2]: Active
Compound: CC(C)Cc1nn(C)c(=O)c2c(SCCCO)n(Cc3cnc(NCCCCCNC(=O)[C@@H](N)CCC(N)=O)c4ccccc34)cc12
Activity [1]: Non-toxic
